Assay results from patent US9771378B2 (Denali Therapeutics, Inc., priority 2014, dated 2017).
pIC50: −log10 of the molar value.

Tested on: Aβ42 (human neuroglioma H4 cells expressing human wild type APP751)
Assay: In vitro cell screening assay with sandwich ELISA quantification of Aβ42 peptide
Assay type: cell-based
Conditions: H4 cells stably expressing human wild type APP751; Pro293 chemically defined medium; compounds 0.003-10 μM; incubated overnight (16-18 h); supernatant Aβ42 by sandwich ELISA; normalized to DMSO and DAPT; read-out: Aβ42 H4 Prot Fre IC50
Outline: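 Aβ42 in supernatants was quantified by sandwich ELISA with C-terminal-specific capture and 4G8-HRP detection, absorbance at 450 nm. Stable APP751-expressing human H4 cells received compound at 0.003-10 μM (0.33% DMSO) overnight (16-18 h). IC50 was derived from percent-of-DMSO-control data by nonlinear variable-slope fit.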

| Structure (SMILES) | pIC50 |
| --- | --- |
| COc1cc(Nc2ncc3c(n2)N(C)[C@@H](CC2CC2)CO3)ccc1-n1cnc(C)c1 [Example 217] | 7.28 |
| Cc1cn(-c2ccc(Nc3ncc4c(n3)N(C)C(c3ccccc3C)CO4)cc2)cn1 (racemic) [Example 43] | 6.67 |
| COc1cc(Nc2ncc3c(n2)N(C)C(c2cc(F)c(F)cc2Cl)CO3)ccc1-n1cnc(C)c1 (single isomer, unassigned; (+)) [Example 103A] | 7.72 |
| COc1nc(Nc2ncc3c(n2)N(C)C(c2cc(F)cc(F)c2)CO3)ccc1-c1ccnc(C)n1 (single isomer, unassigned; (-)) [Example 183B] | < 5.52 |
| COc1cc(Nc2ncc3c(n2)N(C)C(c2ccc(Cl)cc2Cl)CO3)ccc1-n1cnc(C)c1 (single isomer, unassigned; (+)) [Example 95B] | 7.82 |
| Cc1cc(-c2ccc(Nc3ncc4c(n3)N(C)C(c3ccccc3C)CO4)cc2)ccn1 (single isomer, unassigned; (+)) [Example 29B] | 7.17 |
| CN1c2nc(Nc3ccc(C#N)cc3)ncc2OCC1C(F)(F)F (single isomer, unassigned; (-)) [Example 226B, (−)-4-((8-methyl-7-(trifluoromethyl)-7,8-dihydro-6H-pyrimido [5,4-b] [1, 4]oxazin-2-yl)amino) benzonitrile] | < 5.52 |
| COc1cc(Nc2ncc3c(n2)N(C)C(Cc2ccccc2)CO3)ccc1-c1ccnc(C)c1 (single isomer, unassigned; (-)) [Example 68B] | 6.64 |
| COc1nc(Nc2ncc3c(n2)N(C)C(c2cc(F)c(F)cc2F)CO3)ccc1-n1cnc(C)c1 (racemic) [Example 191] | 5.65 |
| Cc1cc(-c2ccc(Nc3ncc4c(n3)N(C)C(c3ccccc3C)CO4)cc2F)ccn1 (single isomer, unassigned; (+)) [Example 32B] | 6.88 |
| COc1cc(Nc2ncc3c(n2)N(C)C(c2ccc(F)cc2Cl)CO3)ccc1-n1cnc(C)c1 (single isomer, unassigned; (-)) [Example 93A] | 6.72 |
| Cc1cn(-c2ccc(Nc3ncc4c(n3)N(C)C(c3cc(F)ccc3C(F)(F)F)CO4)cc2F)cn1 (single isomer, unassigned; (-)) [Example 104A] | 6.28 |
| COc1cc(Nc2ncc3c(n2)N(C)C(c2ccccc2Cl)CO3)ccc1-n1cnc(C)c1 (single isomer, unassigned; (+)) [Example 51B] | 7.24 |
| COc1cc(Nc2ncc3c(n2)N(C)[C@@H](C2CCC2)CO3)ccc1-n1cnc(C)c1 [Example 227] | 7.72 |
| Cc1cc(-c2ccc(Nc3ncc4c(n3)N(C)C(c3ccc(F)cc3)CO4)cc2F)ccn1 (single isomer, unassigned; (+)) [Example 56A] | 7.15 |
| COc1cc(Nc2ncc3c(n2)N(C)C(C)CO3)cnc1-n1cnc(C)c1 (single isomer, unassigned; (+)) [Example 185A] | 6.62 |
| COc1cc(Nc2ncc3c(n2)N(C)C(C)(C)CO3)ccc1-c1cnn(C)c1 [Example 267] | 6.09 |
| COc1cc(Nc2ncc3c(n2)N(C)C(c2ccccc2Cl)CO3)ccc1-n1cnc(C)c1 (single isomer, unassigned; (-)) [Example 51A] | 7.55 |
| Cc1cn(-c2ccc(Nc3ncc4c(n3)N(C)C(c3cc(F)c(F)c(F)c3)CO4)cc2)cn1 (single isomer, unassigned; (-)) [Example 115A] | 5.54 |
| COc1ccc(C2COc3cnc(Nc4cnc(-n5cnc(C)c5)c(OC)c4)nc3N2C)c(C)c1 (single isomer, unassigned; (-)) [Example 215B] | 7.02 |
| Cc1cn(-c2ccc(Nc3ncc4c(n3)N(C)C(c3cc(F)cc(F)c3)CO4)cc2F)cn1 (single isomer, unassigned; (-)) [Example 33B] | 6.41 |
| Cc1cc(-c2ccc(Nc3ncc4c(n3)N(C)C(c3ccccc3)CO4)cc2F)ccn1 (single isomer, unassigned; (-)) [Example 27B] | 5.68 |
| Cc1cn(-c2ncc(Nc3ncc4c(n3)N(C)C(c3cc(F)cc(F)c3)CO4)cc2Cl)cn1 (single isomer, unassigned; (-)) [Example 210B] | 5.63 |
| COc1cc(Nc2ncc3c(n2)N(C)C(c2ccc(Cl)cc2C(F)(F)F)CO3)ccc1-c1ccnc(C)c1 (single isomer, unassigned; (-)) [Example 107A] | 6.37 |
| COc1cc(Nc2ncc3c(n2)N(C)C(Cc2ccccc2)CO3)ccc1-n1cnc(C)c1 (racemic) [Example 47] | 7.39 |
| Cc1cc(-c2ccc(Nc3ncc4c(n3)N(C)C(c3ccccc3)CO4)cc2)ccn1 (single isomer, unassigned; (+)) [Example 24A] | 7.17 |

| Structure (SMILES) | pIC50 |
| --- | --- |
| Cc1cn(-c2ccc(Nc3ncc4c(n3)N(C)C(c3ccc(Cl)cc3Cl)CO4)cc2F)cn1 (single isomer, unassigned; (-)) [Example 96B] | 6.06 |
| COc1cc(Nc2ncc3c(n2)N(C)C(C2CCC(F)(F)CC2)CO3)cnc1-c1cnn(C)c1 (single isomer, unassigned; (-)) [Example 231B] | < 5.52 |
| Cc1cn(-c2ccc(Nc3ncc4c(n3)N(C)C(Cc3ccccc3)CO4)cc2F)cn1 (single isomer, unassigned; (-)) [Example 59B] | 6.34 |
| COc1cc(Nc2ncc3c(n2)N(C)[C@H](CO)CO3)ccc1-n1cnc(C)c1 [Example 177, (R)-(2-((3-methoxy-4-(4-methyl-1H-imidazol-1-yl)phenyl)amino)-8-methyl-7,8-dihydro-6H-pyrimido [5,4-b] [1, 4]oxazin-7-yl) methanol] | 6.58 |
| COc1cc(Nc2ncc3c(n2)N(C)C(c2cc(F)c(F)c(F)c2)CO3)ccc1-n1cnc(C)c1 (single isomer, unassigned; (+)) [Example 40B] | 7.96 |
| COc1nc(Nc2ncc3c(n2)N(C)C(C)CO3)ccc1-n1cnc(C)c1 (racemic) [Example 190] | < 5.52 |
| Cc1cn(-c2ccc(Nc3ncc4c(n3)N(C)C(c3ccccc3OC(F)(F)F)CO4)cc2F)cn1 (single isomer, unassigned; (-)) [Example 64B] | 6.13 |
| COc1cc(Nc2ncc3c(n2)N(C)C(c2cc(F)cc(F)c2)CO3)cnc1-n1cnc(C#N)c1 (single isomer, unassigned; (-)) [Example 211B, (−)-1-(5-((7-(3,5-difluorophenyl)-8-methyl-7,8-dihydro-6H-pyrimido [5,4-b] [1, 4]oxazin-2-yl)amino)-3-methoxypyridin-2-yl)-1H-imidazole-4-carbonitrile] | < 5.52 |
| Cc1cn(-c2ccc(Nc3ncc4c(n3)N(C)C(C)CO4)cc2C#N)cn1 (single isomer, unassigned; (-)) [Example 205B, (−)-5-((7,8-dimethyl-7,8-dihydro-6H-pyrimido [5,4-b] [1, 4]oxazin-2-yl)amino)-2-(4-methyl-1H-imidazol-1-yl) benzonitrile] | 6.59 |
| COc1cc(Nc2ncc3c(n2)N(C)C(c2ccccc2C(F)(F)F)CO3)ccc1-n1cnc(C)c1 (single isomer, unassigned; (+)) [Example 55B] | 7.18 |
| COc1cc(Nc2ncc3c(n2)N(C)C(C)CO3)ccc1-c1ccnc(C)c1 (single isomer, unassigned; (-)) [Example 110A] | 6.70 |
| COc1cc(Nc2ncc3c(n2)N(C)C(c2ccc(Cl)cc2Cl)CO3)ccc1-n1cnc(C)c1 (single isomer, unassigned; (-)) [Example 95A] | 6.94 |
| COc1cc(Nc2ncc3c(n2)N(C)C(c2ccc(F)cc2C)CO3)ccc1-n1cnc(C)c1 (single isomer, unassigned; (-)) [Example 117A] | 6.85 |
| COc1cc(Nc2ncc3c(n2)N(C)C2(CC2)CO3)ccc1-n1cnc(C)c1 [Example 257] | 7.31 |
| COc1cc(Nc2ncc3c(n2)N(C)C(C2CCS(=O)(=O)CC2)CO3)ccc1-n1cnc(C)c1 (single isomer, unassigned; (+)) [Example 239B, (+)-4-(2-((3-methoxy-4-(4-methyl-1H-imidazol-1-yl)phenyl)amino)-8-methyl-7,8-dihydro-6H-pyrimido [5,4-b] [1, 4]oxazin-7-yl) tetrahydro-2H-thiopyran 1,1-dioxide] | 6.42 |
| COc1nc(Nc2ncc3c(n2)N(C)C(C)CO3)ccc1-c1cnn(C)c1 (racemic) [Example 195] | < 5.52 |
| COc1cc(Nc2ncc3c(n2)N(C)C(c2ccccc2C)CO3)ccc1-c1ccnc(C)c1 (racemic) [Example 35] | 7.06 |
| COc1cc(Nc2ncc3c(n2)N(C)C(C)CO3)ncc1-n1cnc(C)c1 (racemic) [Example 234] | 5.75 |
| Cc1cn(-c2ccc(Nc3ncc4c(n3)N(C)C(c3ccc(F)cc3Cl)CO4)cc2F)cn1 (single isomer, unassigned; (+)) [Example 101A] | 7.12 |
| COc1cc(Nc2ncc3c(n2)N(C)C(C2(C(F)(F)F)CC2)CO3)cnc1-n1cnc(C)c1 (single isomer, unassigned; (+)) [Example 247B] | 8.30 |
| Cc1cn(-c2ccc(Nc3ncc4c(n3)N(C)C(c3cc(Cl)ccc3C(F)(F)F)CO4)cc2F)cn1 (single isomer, unassigned; (-)) [Example 100B] | 6.23 |
| COc1cc(Nc2ncc3c(n2)N(C)C(c2cc(F)ccc2C(F)(F)F)CO3)ccc1-n1cnc(C)c1 (single isomer, unassigned; (+)) [Example 105B] | 7.29 |
| COc1cc(Nc2ncc3c(n2)N(C)C(c2ccccc2OC(F)(F)F)CO3)ccc1-n1cnc(C)c1 (single isomer, unassigned; (+)) [Example 60B] | 7.11 |
| COc1ccc(C)c(C2COc3cnc(Nc4cnc(-n5cnc(C)c5)c(OC)c4)nc3N2C)c1 (single isomer, unassigned; (+)) [Example 207A] | 8.00 |
| Cc1cn(-c2ccc(Nc3ncc4c(n3)N(C)C(c3ccc(F)cc3F)CO4)cc2F)cn1 (single isomer, unassigned; (-)) [Example 69B] | < 5.52 |
| COc1cc(Nc2ncc3c(n2)N(C)[C@@H](C(C)(C)C)CO3)ccc1-n1cnc(C)c1 [Example 240] | 7.68 |
